This note sets out measurements from US20200239587A1, “SENSITIZATION OF TUMORS TO THERAPIES THROUGH ENDOGLIN ANTAGONISM” (Cedars-Sinai Medical Center, priority 2016, published 2020).

Holding throughout (assay type): cell-based, human
Test [1] deals with SIRT1 transcription in CW22Rv1. Kind of test: BMP dependent SIRT1 mRNA expression. The following applies: 50 ng/ml BMP4, serum free; TRC105 0.05-10 μg/ml. The procedure: FIG. 20A) Western blot for SIRT1 expression measured in 22Rv1 cells following serum starvation and treatment with 50 ng/ml BMP4 for 4 hours. Phosphorylated Smad1/5 and β-actin was measured concurrently. FIG. 20B) SIRT1 mRNA expression was measured in CW22Rv1 under serum free conditions with 50 ng/ml BMP4, IgG in the context of increasing doses of TRC105 (0.05, 0.1, 0.5, 1, 5, or 10 μg/ml). SIRT1 mRNA expression was normalized to GAPDH and to serum treated control. FIG. 20C) Fold Change of SIRT1 mRNA in benign prostate and prostate cancer patients, obtained from R2-Genomics analysis is expressed (n=95). FIG. 20D) Immunohistochemical localization for SIRT1 expression in benign and prostate cancer tissues is indicated by arrows (Human Protein Atlas). […] FIG. 20E) SIRT1 mRNA expression was measured 72 hours following irradiation of 22Rv1 in a dose range of 0-6 Gy. FIG. 20F) SIRT1 mRNA expression was measured in a time course 0-72 hours following 4 Gy irradiation. […]
Total RNA was extracted using the RNeasy kit (Qiagen). […] Quantitative RT-PCR was performed with 5 replicates using the Step One Real-Time PCR system (Applied Biosystems). […] For RNA-sequencing, Ion Proton AmpliSeq Transcriptome RNA Sequencing was performed achieving an average of 3M reads. We mapped an average of 88% of the reads to the human genome with Torrent Suite version 4.4.2.

Test [2] has as its system ID1 mRNA expression by Rv1 cells and mouse wild-type fibroblasts. As to the kind of experiment: Species specificity of CD105 antagonists, BMP-induced ID1 mRNA. The following applies: 1 μg/ml; BMP 50 ng/mL, 6 hours. The procedure: All cells were pre-treated overnight in serum free media, then incubated with BMP (50 ng/mL) in the presence or absence of differing concentrations of concentrations of TRC105 or M1043 for 6 hours (mean+/−SD). Within each group, the left column depicts human PCa and right column depicts mouse fibroblasts.
Total RNA was extracted using the RNeasy kit (Qiagen). 1 μg RNA was used for cDNA synthesis using iSCRIPT cDNA synthesis kit (1708891, Bio-Rad). Quantitative RT-PCR was performed with 5 replicates using the Step One Real-Time PCR system (Applied Biosystems). Gene mRNA expression was normalized to GAPDH. Primer sequences can be found in the Table 1. For RNA-sequencing, Ion Proton AmpliSeq Transcriptome RNA Sequencing was performed achieving an average of 3M reads. We mapped an average of 88% of the reads to the human genome with Torrent Suite version 4.4.2.

Test [3] has as its system survivin and full length PARP1 in CW22Rv1. As to the kind of experiment: Survival proteins after radiation and TRC105. The following applies: 4Gy radiation and TRC105, 5 days.
In another test the test system is 22Rv1 cells. As to the kind of experiment: Total cellular ATP. The following applies: with or without 4 Gy, 0-168 hours. The procedure: Cells were analyzed for mito-stress test by Seahorse-XF 168 hours following 4 Gy of radiation in the presence of IgG or TRC105. FIG. 26A) Basal respiration, non-mito respiration, proton leak, spare respiratory capacity, FIG. 26B) extracellular acidification rate (ECAR) and FIG. 26C) mitochondrial dependent ATP production were quantitated using Wave 2.3.0 analysis. Data are reported as mean+/−S.D. of a representative experiment (n=5) of 3 independent experiments. FIGS. 26A-26C, the first/left column depicts 0Gy+IgG, the second column depicts 0Gy+TRC105, the third column depicts 4Gy+IgG and the last/right column depicts 4Gy+TRC105. FIG. 26D) 22Rv1 cells treated with IgG, TRC105 or nicotinamide were irradiated (4 Gy). Total cellular ATP was measured 0, 24, 72, 120, and 168 hours post radiation. Within each group, the left column is IgG, middle column is TRC105 and the right column is nicotinamide. Data are reported as mean+/−S.D. of 3 independent experiments. (***p<0.001, ****p<0.0001).

For test [4], the system named is BMP dependent CD105 signaling in 22Rv1. Kind of test: BMP-stimulated phosphorylated-SMAD1/5 and ID1 expression. The following applies: stimulated with 50 ng/mL BMP. The procedure:
FIG. 18A) Cell surface CD105 expression was measured in PC3, C42b, and 22Rv1 72 hours after 4 Gy irradiation treatment by FACS analysis and compared to cells not irradiated (control). FIG. 18B) Cell surface CD105 expression was measured in cell lines following a dose range of irradiation (0, 2, 4, or 6 Gy). FIG. 18C) The durability of cell surface CD105 expression in 22Rv1 was determined 0, 0.5, 4, 8, 24, 48, 72, 120, and 168 hours following 4 Gy irradiation. CD105 cell surface expression fold change was normalized to levels expressed prior to irradiation. FIG. 18D) Western blot for phosphorylated-Smad1/5 was measured in CW22Rv1 cells in the presence or absence of serum starvation and treatment with 50 ng/ml BMP4 or 1 μg/ml TRC105. β-actin expression served as the loading control. FIG. 18E) Annexin-V expression was measured in 22Rv1 cells by FACS analysis 5 days following 4 Gy irradiation in the presence and absence of TRC105. FIG. 18F) Clonogenic assay was measured 10 days following irradiation of CW22Rv1 and C42b cells in a dose range of 0 to 6 Gy in the presence of 1 μg/ml IgG or TRC105. […]
Total RNA was extracted using the RNeasy kit (Qiagen). […] Quantitative RT-PCR was performed with 5 replicates using the Step One Real-Time PCR system (Applied Biosystems). […] For RNA-sequencing, Ion Proton AmpliSeq Transcriptome RNA Sequencing was performed achieving an average of 3M reads. […]

As for “TRC105: partially humanized monoclonal antibody that blocks BMP signaling; human-specific CD105 (endoglin) neutralizing antibody from Tracon Pharmaceuticals”, the “BMP dependent induction of SIRT1 transcription” value in test [1] was “down-regulated when CD105 was antagonized with TRC105 in a dose dependent manner”. Also, in test [2], the cross-species reactivity entry is reported as “no cross-species reactivity”. Moreover, the “survival proteins (survivin and full length PARP1)” value in test [3] was “precipitous down regulation of survival proteins”. For the same substance, in the test on 22Rv1 cells, the “cellular ATP stores” value is given as “depleted regardless of radiation treatment”. For the same substance, the “minimum dose that effectively blocked phosphorylated-SMAD1/5 activation and expression of ID1” value in test [4] turned out to be 1 µg/mL.
